The values that follow come from ChEMBL document CHEMBL1201862, “PubChem BioAssay data set” (2004).

Structures are written as SMILES. Active and inactive are the calls of the source. Some results are limits rather than exact numbers.

Experiment [1] has as its target Phospholipase A2 (Homo sapiens, UniProt P04054). The class given is functional.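 Further: confirmatory dose-response counterscreen on phospholipase A2, testing hits that came from an ultra-high-throughput screen for ATG4B inhibitors.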
For experiment [2], the target named is T1, Cysteine protease ATG4B (Homo sapiens, UniProt Q9Y4P1).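 Further: Fluorescence-based dose-response confirmation assay measuring inhibition of ATG4B activity.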
T1 sequence (Q9Y4P1 whole entry): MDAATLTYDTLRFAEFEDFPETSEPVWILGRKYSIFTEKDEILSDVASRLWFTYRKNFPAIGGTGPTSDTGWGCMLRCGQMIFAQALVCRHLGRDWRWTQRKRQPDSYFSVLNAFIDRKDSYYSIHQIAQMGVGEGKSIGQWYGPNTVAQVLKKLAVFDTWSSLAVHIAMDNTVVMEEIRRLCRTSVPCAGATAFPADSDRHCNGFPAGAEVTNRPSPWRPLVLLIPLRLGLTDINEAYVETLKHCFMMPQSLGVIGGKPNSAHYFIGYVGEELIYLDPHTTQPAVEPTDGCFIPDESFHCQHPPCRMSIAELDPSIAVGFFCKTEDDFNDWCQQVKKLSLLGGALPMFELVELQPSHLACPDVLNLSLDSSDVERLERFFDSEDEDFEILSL
The class given is functional.

Experiment [3] deals with T2, Caspase-3 (Homo sapiens, UniProt P42574).
T2 sequence (P42574 whole entry): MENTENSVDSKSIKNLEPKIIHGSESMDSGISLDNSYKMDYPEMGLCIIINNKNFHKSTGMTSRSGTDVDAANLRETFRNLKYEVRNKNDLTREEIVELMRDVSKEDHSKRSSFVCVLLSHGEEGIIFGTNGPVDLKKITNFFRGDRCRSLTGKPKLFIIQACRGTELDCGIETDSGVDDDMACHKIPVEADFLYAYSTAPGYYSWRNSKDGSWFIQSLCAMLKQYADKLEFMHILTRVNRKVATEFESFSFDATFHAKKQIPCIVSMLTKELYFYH
The format is functional.

Experiment [4] addresses T3, Sentrin-specific protease 8 (Homo sapiens, UniProt Q96LD8).
T3 sequence (Q96LD8 whole entry): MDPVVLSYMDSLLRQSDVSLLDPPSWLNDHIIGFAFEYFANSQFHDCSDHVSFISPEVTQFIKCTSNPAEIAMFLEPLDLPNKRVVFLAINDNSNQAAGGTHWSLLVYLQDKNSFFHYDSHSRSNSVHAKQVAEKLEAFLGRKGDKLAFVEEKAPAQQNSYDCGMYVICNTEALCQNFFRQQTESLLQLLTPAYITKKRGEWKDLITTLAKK
The class given is functional.

The target of experiment [5] is T4, Sentrin-specific protease 7 (Homo sapiens, UniProt Q9BQF6).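 Further: Luminescence-based dose-response confirmation of ultra-high-throughput screening hits, measuring inhibition of SENP7.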
T4 sequence (Q9BQF6 whole entry): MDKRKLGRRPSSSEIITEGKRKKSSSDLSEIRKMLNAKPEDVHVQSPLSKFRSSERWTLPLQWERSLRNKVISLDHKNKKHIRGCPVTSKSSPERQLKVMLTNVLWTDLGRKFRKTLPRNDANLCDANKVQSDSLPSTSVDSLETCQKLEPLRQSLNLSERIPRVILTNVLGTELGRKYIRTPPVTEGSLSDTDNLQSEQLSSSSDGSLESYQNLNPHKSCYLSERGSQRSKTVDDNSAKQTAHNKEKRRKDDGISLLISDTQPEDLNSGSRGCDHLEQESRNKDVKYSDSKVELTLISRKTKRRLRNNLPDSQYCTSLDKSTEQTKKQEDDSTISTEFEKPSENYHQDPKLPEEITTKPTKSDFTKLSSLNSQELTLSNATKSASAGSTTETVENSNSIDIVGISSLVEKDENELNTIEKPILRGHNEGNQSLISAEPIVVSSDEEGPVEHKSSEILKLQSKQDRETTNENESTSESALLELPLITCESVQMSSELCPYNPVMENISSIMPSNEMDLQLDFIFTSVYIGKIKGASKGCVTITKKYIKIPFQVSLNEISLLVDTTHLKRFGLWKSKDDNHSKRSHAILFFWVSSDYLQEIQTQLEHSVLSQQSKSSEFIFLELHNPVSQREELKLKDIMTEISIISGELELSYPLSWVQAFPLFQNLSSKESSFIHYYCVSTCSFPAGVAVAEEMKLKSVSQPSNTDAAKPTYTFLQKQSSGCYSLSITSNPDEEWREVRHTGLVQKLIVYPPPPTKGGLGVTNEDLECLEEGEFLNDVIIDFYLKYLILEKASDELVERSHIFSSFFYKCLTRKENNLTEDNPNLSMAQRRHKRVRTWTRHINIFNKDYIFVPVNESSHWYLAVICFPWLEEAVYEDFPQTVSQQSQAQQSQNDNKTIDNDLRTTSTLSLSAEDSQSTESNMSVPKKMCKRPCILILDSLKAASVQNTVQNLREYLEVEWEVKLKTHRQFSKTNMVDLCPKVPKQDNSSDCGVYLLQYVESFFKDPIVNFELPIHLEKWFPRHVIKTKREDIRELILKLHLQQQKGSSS
The format is functional.

In experiment [6] the target is T5, Sentrin-specific protease 6 (Homo sapiens, UniProt Q9GZR1).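 Further: Luminescence-based dose-response confirmatory assay of SENP6 inhibition, following up an ultra-high-throughput screen.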
T5 sequence (Q9GZR1 whole entry): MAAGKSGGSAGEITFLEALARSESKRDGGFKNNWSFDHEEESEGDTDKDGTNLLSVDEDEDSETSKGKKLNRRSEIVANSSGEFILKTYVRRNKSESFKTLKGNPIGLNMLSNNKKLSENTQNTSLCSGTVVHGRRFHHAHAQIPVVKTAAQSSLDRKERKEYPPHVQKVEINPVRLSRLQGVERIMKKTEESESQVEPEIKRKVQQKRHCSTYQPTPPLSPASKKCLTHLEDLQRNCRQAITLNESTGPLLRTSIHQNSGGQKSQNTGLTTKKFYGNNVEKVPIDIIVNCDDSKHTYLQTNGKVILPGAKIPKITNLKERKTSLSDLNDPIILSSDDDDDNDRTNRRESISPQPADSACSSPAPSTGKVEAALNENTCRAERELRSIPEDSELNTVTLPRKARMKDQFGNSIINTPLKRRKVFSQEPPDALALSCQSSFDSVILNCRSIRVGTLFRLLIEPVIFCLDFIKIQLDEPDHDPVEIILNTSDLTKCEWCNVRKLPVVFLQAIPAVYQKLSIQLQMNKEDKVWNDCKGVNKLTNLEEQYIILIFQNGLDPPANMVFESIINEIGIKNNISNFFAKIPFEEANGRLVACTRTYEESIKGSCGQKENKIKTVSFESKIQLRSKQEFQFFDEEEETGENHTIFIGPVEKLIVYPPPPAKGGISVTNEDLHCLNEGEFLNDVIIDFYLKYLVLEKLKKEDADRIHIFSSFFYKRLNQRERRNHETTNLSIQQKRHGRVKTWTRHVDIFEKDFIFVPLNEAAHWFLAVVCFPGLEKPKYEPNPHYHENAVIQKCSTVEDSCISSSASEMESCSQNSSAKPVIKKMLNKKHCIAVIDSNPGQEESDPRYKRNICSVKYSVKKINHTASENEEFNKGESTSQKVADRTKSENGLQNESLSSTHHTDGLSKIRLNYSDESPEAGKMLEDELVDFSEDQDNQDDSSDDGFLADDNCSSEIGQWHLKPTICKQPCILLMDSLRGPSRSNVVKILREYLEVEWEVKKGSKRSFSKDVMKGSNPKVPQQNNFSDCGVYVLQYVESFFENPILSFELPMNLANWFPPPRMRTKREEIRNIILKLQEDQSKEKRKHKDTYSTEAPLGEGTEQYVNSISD
The format is functional.

In experiment [7] the target is T6, Small ubiquitin-related modifier 1 (Homo sapiens, UniProt P63165). The experiment in a line: inhibitors of SUMO1 peptide binding, dose response, biochemical, fluorescence polarization, uHTS hits (AID 624382). The format is functional. The settings on record: read-out: IC50_Mean. For orientation: Polarisation of emitted light reports the rotation of a fluorescent probe.
T6 sequence (P63165 whole entry): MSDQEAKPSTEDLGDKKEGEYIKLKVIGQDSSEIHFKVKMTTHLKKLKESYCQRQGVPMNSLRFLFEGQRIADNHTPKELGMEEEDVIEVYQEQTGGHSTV

Experiment [8] has as its target T6, Small ubiquitin-related modifier 1. Kind of experiment: inhibitors of SUMO1 partner interactions, dose response, biochemical, FRET (AID 624383). The format is functional. The following applies: read-out: IC50_Mean.
Experiment [9] is described as follows: HEp-2 cell cytotoxicity, dose response, cytotoxicity control for RSV inhibitor project, HTS (AID 2410). The format is functional. The settings on record: human respiratory syncytial virus.
The nature of experiment [10]: Counterscreen for inhibitors of Trypanosoma brucei methionyl tRNA synthetase (MetRS): Luminescence-based cell-based high throughput dose response assay to identify compounds that are cytotoxic to Jurkat human T lymphocyte cells. The class given is functional. (In general: The purpose of a counterscreen is to sort out artefacts and off-target activity.)
The target in experiment [11] is T7, Methionyl-tRNA synthetase, putative (Trypanosoma brucei brucei, UniProt Q38C91).
T7 sequence (Q38C91 whole entry): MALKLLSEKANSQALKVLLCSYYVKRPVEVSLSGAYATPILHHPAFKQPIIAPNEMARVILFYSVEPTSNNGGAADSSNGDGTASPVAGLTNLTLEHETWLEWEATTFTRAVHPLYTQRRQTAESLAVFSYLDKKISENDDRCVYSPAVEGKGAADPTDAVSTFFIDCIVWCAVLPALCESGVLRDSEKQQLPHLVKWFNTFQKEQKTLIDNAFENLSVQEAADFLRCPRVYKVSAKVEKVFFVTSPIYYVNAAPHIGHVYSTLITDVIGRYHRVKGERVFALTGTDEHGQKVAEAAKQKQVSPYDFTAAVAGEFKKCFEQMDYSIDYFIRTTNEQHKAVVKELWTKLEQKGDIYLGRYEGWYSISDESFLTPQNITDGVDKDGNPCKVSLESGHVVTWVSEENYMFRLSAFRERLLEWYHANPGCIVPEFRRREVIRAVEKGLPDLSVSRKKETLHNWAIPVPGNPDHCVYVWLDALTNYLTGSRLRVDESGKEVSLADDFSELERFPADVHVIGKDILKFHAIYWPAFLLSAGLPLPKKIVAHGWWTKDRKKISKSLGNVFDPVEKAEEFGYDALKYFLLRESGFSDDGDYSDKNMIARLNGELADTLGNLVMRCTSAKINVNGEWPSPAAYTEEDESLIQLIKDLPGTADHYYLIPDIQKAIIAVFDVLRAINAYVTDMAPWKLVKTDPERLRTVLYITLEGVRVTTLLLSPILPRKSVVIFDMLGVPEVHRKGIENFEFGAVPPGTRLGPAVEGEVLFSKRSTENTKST
The format is functional, Trypanosoma brucei brucei strain 927/4 GUTat10.1.

In experiment [12] the target is T7, Methionyl-tRNA synthetase, putative. The format is functional, Trypanosoma brucei brucei strain 927/4 GUTat10.1. The source holds these as a separate data set.
In experiment [13] the test system is P388. The experiment in a line: cells. The format is functional. The settings on record: Mus musculus.
For experiment [14], the system named is SN12K1. Kind of experiment: cells. The format is functional. The settings on record: Homo sapiens.
Experiment [15] concerns P388/ADR. The experiment in a line: cells. The format is functional. The following applies: Mus musculus.
A short description of experiment [16]: intracellular Trypanosoma cruzi inhibitors in host cells – cell-based, plate reader, cherry-pick samples, set 3, dose response (AID 651818).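 Further: compounds incubated with infected cells for about four days.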 The class given is functional.

Chain of Phospholipase A2 (P04054 whole entry): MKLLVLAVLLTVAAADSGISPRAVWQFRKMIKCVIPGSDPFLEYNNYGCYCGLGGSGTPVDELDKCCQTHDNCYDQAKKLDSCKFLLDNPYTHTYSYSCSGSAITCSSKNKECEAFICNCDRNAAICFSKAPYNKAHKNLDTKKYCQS

Turning to `Cc1ccc(-c2nnc(SCc3ccccc3F)o2)cc1`, the IC50 in [1] is 7.21 µM (active); in [2], 14.5 µM (active); in [3] it was 17.7 µM (active); in experiment [4] it was 21.4 µM (active); in [5] it was 5.03 µM (active); in experiment [6], 14.6 µM (active).

Take `CCCCCCC(=O)Nc1nc(C)c(-c2csc(Nc3cccc(OC)c3)n2)s1`: the IC50 in experiment [7] is > 66.6 µM (inactive); in experiment [8], 12.9 µM (active). Also, the CC50 in [9] was 18.4 µM (active).

On to `Clc1ccc2[nH]c(C3CCN(Cc4nnnn4C4CCCCC4)CC3)nc2c1`, for which, in [10], the IC50 was 14.5 µM (inactive).

As for `Clc1ccc2nc(C3CCN(Cc4nnnn4C4CCCCC4)CC3)[nH]c2c1`, the IC50 in experiment [11] is 7.33 µM (active); in experiment [12], 2.91 µM (active).

Consider `COc1ccc(C(=O)Nc2ccc(C(=O)Nc3nccs3)cc2)cc1[N+](=O)[O-]`, for which the IC50 was > 66.6 µM (inactive) in [7] and 9.87 µM (active) in experiment [8].

For `C[C@H](O)[C@@H]1C(=O)N2CCc3c([nH]c4ccccc34)[C@@H]2C[C@@H]1N(C)Cc1ccc(Cl)cc1`, the results for the IC50 in experiment [10], in experiment [11] and in experiment [12] were 57.9 µM (inactive), 1.49 µM (active) and 0.974 µM (active), respectively.

Turning to `CCN(CC)CCNC(=O)C1COc2ccc(-c3cc(=O)c4ccccc4o3)cc2O1` (stereo unspecified), the GI50 in experiment [13] is 0.29 µM (active); in experiment [14], 16.8 µM (inactive); in experiment [15], 12.3 µM (inactive).

For `COc1cc2c(cc1OC)C(Cl)C(c1ccc(Br)cc1)=C2Cl` (stereo unspecified), the GI50 in [13] is 3.94 µM (inactive); in experiment [14], 15.6 µM (inactive); in [15] it was 3.78 µM (inactive).

Take `CCOC(=O)/C(O)=C1\C(=O)N(C)C(=O)C1c1cccc(OC)c1` (stereo unspecified): the GI50 in [13], in experiment [14] and in experiment [15] was > 100 µM (inactive) in each case.

Regarding `O=S(=O)(O)c1cc(/N=[N+](\[O-])c2ccc(/N=N/c3ccccc3)cc2S(=O)(=O)O)ccc1/C=C/c1ccc(/N=[N+](\[O-])c2ccc(/N=N/c3ccccc3)cc2S(=O)(=O)O)cc1S(=O)(=O)O`, the GI50 was > 100 µM (inactive) in [13] and > 31.6 µM (inactive) in experiment [14].

Take `C[C@H]1CN([C@@H](C)CO)C(=O)c2cccc(NC(=O)c3ccncc3)c2O[C@@H]1CN(C)CC1CCCCC1`: the AC50 in experiment [16] was 0.365 µM (active).

`C[C@H](CO)N1C[C@H](C)[C@@H](CN(C)CC2CC2)Oc2c(NC(=O)Nc3ccc4c(c3)OCO4)cccc2C1=O`: the AC50 in experiment [16] was 20 µM (inactive).

Take `Cc1ccc(S(=O)(=O)N(C)C[C@H]2Oc3c(NC(=O)c4ccc(-c5nccs5)cc4)cccc3C(=O)N([C@H](C)CO)C[C@@H]2C)cc1`: the AC50 in experiment [16] was 8.72 µM (active).

The CC50 is the concentration at which the toxic effect on the cells reaches its halfway point. One may read the GI50 as the concentration that inhibits growth by half. Usually AC50 stands for the concentration giving half of the maximal activity seen.
